Patent publication US11459329B2, “Imidazopyridazine and imidazopyridine compounds and uses thereof” (Incyte Corporation, priority 2018, dated 2022)
Read-outs that look alike come from different tables or passages of the source.

Biological target: ALK2 (aa 147-end) (Homo sapiens (Human), UniProt Q04771)
Test: ALK2 HTRF Assay
Format: biochemical
Procedure: The enzymatic assays were conducted in white 384-well polystyrene plates in a final volume of 8 μL. The inhibitors were serially diluted in DMSO and added to the plate wells prior to addition of the other reaction components. The assays were carried out at 25° C. in the assay buffer (50 mM HEPES, pH 7.0, 10% Glycerol, 0.01% Brij50, 10 mM MgCl2, 1 mM EGTA, 5 mM DTT, and 0.01% BSA), containing 50 nM LANCE Ultra ULight™-DNA Topoisomerase 2-alpha peptide (Perkin Elmer TRF0130), and 3 μM ATP. The final concentration of DMSO in the assay was 1% and the enzyme concentration was 0.5 nM for ALK2. […] […] IC50 determination was performed by fitting percent control activity versus the log of the inhibitor concentration using the IDBS XLFit and GraphPad Prism 5.0 software.

[1] = 3 μM ATP, 0.5 nM ALK2, 2 hr, 25° C., read-out: ALK2 IC50

ALK2 (aa 147-end), sequence (Q04771 147-509): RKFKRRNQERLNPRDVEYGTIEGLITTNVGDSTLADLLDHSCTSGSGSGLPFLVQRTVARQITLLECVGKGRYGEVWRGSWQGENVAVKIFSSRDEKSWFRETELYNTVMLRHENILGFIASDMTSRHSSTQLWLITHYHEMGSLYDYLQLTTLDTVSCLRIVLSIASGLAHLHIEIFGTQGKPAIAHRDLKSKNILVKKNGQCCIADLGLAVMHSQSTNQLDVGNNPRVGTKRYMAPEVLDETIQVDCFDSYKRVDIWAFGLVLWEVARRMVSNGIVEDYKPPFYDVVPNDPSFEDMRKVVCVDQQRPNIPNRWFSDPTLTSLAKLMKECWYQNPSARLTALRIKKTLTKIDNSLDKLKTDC

Structure (SMILES) | IC50 [1] [nM] | IC50 [nM]
COC(=O)c1nn2c(-c3ccnc4ccccc34)cnc2cc1-c1ccc(N2CCNCC2)cc1 [Example 2, Methyl 7-(4-(piperazin-1-yl)phenyl)-3-(quinolin-4-yl)imidazo[1,2-b]pyridazine-6-carboxylate] | < 1 | –
C[C@]1(O)CC[C@H](NC(=O)c2nn3c(-c4ccnc5ccccc45)cnc3cc2-c2ccc(N3CCNCC3)cc2)CC1 [Example 3, N-((1R,4R)-4-Hydroxy-4-methylcyclohexyl)-7-(4-(piperazin-1-yl)phenyl)-3-(quinolin-4-yl)imidazo[1,2-b]pyridazine-6-carboxamide] | 5 to 100 | –
CCOC(=O)N1CCN(C(=O)c2nn3c(-c4ccnc5ccccc45)cnc3cc2-c2ccc(N3CCNCC3)cc2)CC1 [Example 4, Ethyl 4-(7-(4-(piperazin-1-yl)phenyl)-3-(quinolin-4-yl)imidazo[1,2-b]pyridazine-6-carbonyl)piperazine-1-carboxylate] | 5 to 100 | –
NC(=O)c1nn2c(-c3ccnc4ccccc34)cnc2cc1-c1ccc(N2CCNCC2)cc1 [Example 5, 7-(4-(Piperazin-1-yl)phenyl)-3-(quinolin-4-yl)imidazo[1,2-b]pyridazine-6-carboxamide] | 5 to 100 | –
N#Cc1nn2c(-c3ccnc4ccccc34)cnc2cc1-c1ccc(N2CCNCC2)cc1 [Example 6, 7-(4-(piperazin-1-yl)phenyl)-3-(quinolin-4-yl)imidazo[1,2-b]pyridazine-6-carbonitrile] | < 1 | –
OCc1nn2c(-c3ccnc4ccccc34)cnc2cc1-c1ccc(N2CCNCC2)cc1 [Example 7, (7-(4-(Piperazin-1-yl)phenyl)-3-(quinolin-4-yl)imidazo[1,2-b]pyridazin-6-yl)methanol] | < 1 | –
COCc1nn2c(-c3ccnc4ccccc34)cnc2cc1-c1ccc(N2CCNCC2)cc1 [Example 8, 4-(6-(Methoxymethyl)-7-(4-(piperazin-1-yl)phenyl)imidazo[1,2-b]pyridazin-3-yl)quinoline] | – | 1 to 5
Cc1nn2c(-c3ccnc4cc(C(=O)N5CCN(C)CC5)ccc34)cnc2cc1-c1ccc(N2CCNCC2)cc1 [Example 17, (4-(6-methyl-7-(4-(piperazin-1-yl)phenyl)imidazo[1,2-b]pyridazin-3-yl)quinolin-7-yl)(4-methylpiperazin-1-yl)methanone] | > 100 | –
Cc1nn2c(-c3ccnc4cc(N5CCOCC5)ccc34)cnc2cc1-c1ccc(N2CCNCC2)cc1 [Example 20, 4-(4-(6-methyl-7-(4-(piperazin-1-yl)phenyl)imidazo[1,2-b]pyridazin-3-yl)quinolin-7-yl)morpholine] | – | 1 to 5
Cc1nn2c(-c3ccnc4cc(N5CC6(CCOC6)C5)ccc34)cnc2cc1-c1ccc(N2CCNCC2)cc1 [Example 21, 2-(4-(6-methyl-7-(4-(piperazin-1-yl)phenyl)imidazo[1,2-b]pyridazin-3-yl)quinolin-7-yl)-6-oxa-2-azaspiro[3.4]octane] | 5 to 100 | –
CC(=O)N1CCN(c2ccc3c(-c4cnc5cc(-c6ccc(N7CCNCC7)cc6)c(C)nn45)ccnc3c2)CC1 [Example 23, 1-(4-(4-(6-methyl-7-(4-(piperazin-1-yl)phenyl)imidazo[1,2-b]pyridazin-3-yl)quinolin-7-yl)piperazin-1-yl)ethan-1-one] | 5 to 100 | –
Cc1nn2c(-c3ccnc4ncccc34)cnc2cc1-c1ccc(N2CCNCC2)cc1 [Example 27, 4-(6-methyl-7-(4-(piperazin-1-yl)phenyl)imidazo[1,2-b]pyridazin-3-yl)-1,8-naphthyridine] | < 1 | –
Cc1nn2c(-c3ccc(C#N)c4ncccc34)cnc2cc1-c1ccc(N2CCNCC2)cc1 [Example 28, 5-(6-methyl-7-(4-(piperazin-1-yl)phenyl)imidazo[1,2-b]pyridazin-3-yl)quinoline-8-carbonitrile] | 5 to 100 | –
Cc1nn2c(-c3ccnc4c3OCCO4)cnc2cc1-c1ccc(N2CCNCC2)cc1 [Example 29, 8-(6-methyl-7-(4-(piperazin-1-yl)phenyl)imidazo[1,2-b]pyridazin-3-yl)-2,3-dihydro-[1,4]dioxino[2,3-b]pyridine] | < 1 | –
Cc1nn2c(-c3ccnc4cc(C#N)ccc34)cnc2cc1-c1ccc(N2CCNCC2)cc1 [Example 30, 4-(6-methyl-7-(4-(piperazin-1-yl)phenyl)imidazo[1,2-b]pyridazin-3-yl)quinoline-7-carbonitrile] | – | 5 to 100
Cc1nn2c(-c3ccnc4c(C(=O)NCCO)cccc34)cnc2cc1-c1ccc(N2CCNCC2)cc1 [Example 31, N-(2-hydroxyethyl)-4-(6-methyl-7-(4-(piperazin-1-yl)phenyl)imidazo[1,2-b]pyridazin-3-yl)quinoline-8-carboxamide] | > 100 | –
Cc1nn2c(-c3ccnc4c3CCN4C(=O)c3ccncc3)cnc2cc1-c1cnn(C2CCOCC2)c1 [Example 32, (4-(6-methyl-7-(1-(tetrahydro-2H-pyran-4-yl)-1H-pyrazol-4-yl)imidazo[1,2-b]pyridazin-3-yl)-2,3-dihydro-1H-pyrrolo[2,3-b]pyridin-1-yl)(pyridin-4-yl)methanone] | 5 to 100 | –
CC(=O)N1C[C@@H]2C[C@H]1CN2c1ccc2c(-c3cnc4cc(-c5cnn([C@H]6CC[C@H](O)CC6)c5)c(C)nn34)ccnc2c1 [Example 33, 1-((1S,4S)-5-(4-(7-(1-((1R,4R)-4-hydroxycyclohexyl)-1H-pyrazol-4-yl)-6-methylimidazo[1,2-b]pyridazin-3-yl)quinolin-7-yl)-2,5-diazabicyclo[2.2.1]heptan-2-yl)ethan-1-one] | 5 to 100 | –

More lines, main results first:

IC50 [1] [nM] | Structure (SMILES) | IC50 [nM]
< 1 | Cc1nn2c(-c3ccnc4ccccc34)cnc2cc1-c1ccc(N2CCNCC2)cc1 [Example 1, 4-(6-Methyl-7-(4-(piperazin-1-yl)phenyl)imidazo[1,2-b]pyridazin-3-yl)quinoline] | –
1 to 5 | Cc1nn2c(-c3ccnc4cc(-c5ccncc5)ccc34)cnc2cc1-c1cnn([C@H]2CC[C@H](O)CC2)c1 [Example 10, (trans)-4-(4-(6-Methyl-3-(7-(pyridin-4-yl)quinolin-4-yl)imidazo[1,2-b]pyridazin-7-yl)-1H-pyrazol-1-yl)cyclohexan-1-ol] | –
< 1 | Cc1nn2c(-c3ccnc4cc(-c5ccncc5)ccc34)cnc2cc1-c1ccc(N2CCN(CCO)CC2)cc1 [Example 11, 2-(4-(4-(6-Methyl-3-(7-(pyridin-4-yl)quinolin-4-yl)imidazo[1,2-b]pyridazin-7-yl)phenyl)piperazin-1-yl)ethan-1-ol] | –
5 to 100 | Cc1nn2c(-c3ccnc4cc(-c5ccncc5)ccc34)cnc2cc1-c1ccc(N2CCN(C)CC2=O)cc1 [Example 12, 4-Methyl-1-(4-(6-methyl-3-(7-(pyridin-4-yl)quinolin-4-yl)imidazo[1,2-b]pyridazin-7-yl)phenyl)piperazin-2-one] | –
5 to 100 | Cc1nn2c(-c3ccnc4cc(-c5ccncc5)ccc34)cnc2cc1-c1cccc(N2CCN(C)CC2)c1 [Example 13, 4-(6-Methyl-7-(3-(4-methylpiperazin-1-yl)phenyl)imidazo[1,2-b]pyridazin-3-yl)-7-(pyridin-4-yl)quinolone] | –
1 to 5 | Cc1nn2c(-c3ccnc4cc(-c5ccncc5)ccc34)cnc2cc1-c1ccc(C(=O)N2CCN(C)CC2)cc1 [Example 14, (4-(6-Methyl-3-(7-(pyridin-4-yl)quinolin-4-yl)imidazo[1,2-b]pyridazin-7-yl)phenyl)(4-methylpiperazin-1-yl)methanone] | –
1 to 5 | Cc1nn2c(-c3ccnc4cc(-c5ccncc5)ccc34)cnc2cc1-c1ccc(CN2CCC[C@H]2C)c(F)c1 [Example 15, (R)-4-(7-(3-fluoro-4-((2-methylpyrrolidin-1-yl)methyl)phenyl)-6-methylimidazo[1,2-b]pyridazin-3-yl)-7-(pyridin-4-yl)quinoline] | –
1 to 5 | CNC(=O)c1ccc2c(-c3cnc4cc(-c5ccc(N6CCNCC6)cc5)c(C)nn34)ccnc2c1 [Example 16, N-methyl-4-(6-methyl-7-(4-(piperazin-1-yl)phenyl)imidazo[1,2-b]pyridazin-3-yl)quinoline-7-carboxamide] | –
1 to 5 | Cc1nn2c(-c3ccnc4cc(-c5ccn(C)n5)ccc34)cnc2cc1-c1ccc(N2CCNCC2)cc1 [Example 18, 7-(1-methyl-1H-pyrazol-3-yl)-4-(6-methyl-7-(4-(piperazin-1-yl)phenyl)imidazo[1,2-b]pyridazin-3-yl)quinoline] | –
1 to 5 | Cc1nn2c(-c3ccnc4cc(-c5ccnc(CO)c5)ccc34)cnc2cc1-c1ccc(N2CCNCC2)cc1 [Example 19, (4-(4-(6-methyl-7-(4-(piperazin-1-yl)phenyl)imidazo[1,2-b]pyridazin-3-yl)quinolin-7-yl)pyridin-2-yl)methanol] | –
< 1 | Cc1nn2c(-c3ccnc4cc(Nc5cccnc5)ccc34)cnc2cc1-c1ccc(N2CCNCC2)cc1 [Example 22, 4-(6-methyl-7-(4-(piperazin-1-yl)phenyl)imidazo[1,2-b]pyridazin-3-yl)-N-(pyridin-3-yl)quinolin-7-amine] | –
5 to 100 | Cc1nn2c(-c3ccnc4cc(CN5CCOCC5)ccc34)cnc2cc1-c1ccc(N2CCNCC2)cc1 [Example 24, 4-((4-(6-methyl-7-(4-(piperazin-1-yl)phenyl)imidazo[1,2-b]pyridazin-3-yl)quinolin-7-yl)methyl)morpholine] | –
1 to 5 | Cc1nn2c(-c3ccnc4cc(C(O)c5cc(F)cc(F)c5)ccc34)cnc2cc1-c1ccc(N2CCNCC2)cc1 (centres unmarked) [Example 25, (3,5-difluorophenyl)(4-(6-methyl-7-(4-(piperazin-1-yl)phenyl)imidazo[1,2-b]pyridazin-3-yl)quinolin-7-yl)methanol] | –
5 to 100 | Cc1nn2c(-c3ccnc4cc(CO)ccc34)cnc2cc1-c1ccc(N2CCNCC2)cc1 [Example 26, (4-(6-methyl-7-(4-(piperazin-1-yl)phenyl)imidazo[1,2-b]pyridazin-3-yl)quinolin-7-yl)methanol] | –
